What all share (format): cell-based
In series [1] the test system is Bach1 mRNA. Description: Dose-response curve of Bach1 mRNA knock-down in human A549 cells. The note with it: three experiments, mean ± standard deviation; for IC50: Table 4, Bach1 mRNA knock-down; for Maximum % KD in DRC: Table 4, Bach1 mRNA, 12 concentrations 0.083 fM to 30 nM. How it is done: All calculations of IC50s were performed using SigmaPlot 10.0 software. The data were analyzed using the sigmoidal dose-response (variable slope) equation for simple ligand binding. In all of the calculations of the % knock-down, the calculation was made relative to the normalized level of expression of the gene of interest in the samples treated with the non-targeting control (Ctrl siNA) unless otherwise indicated. Summary data, as to potency and efficacy for Bach1 mRNA knock-down in human cells for certain siNA molecules, is presented in Table 4. Cells for the experiments were treated with 12 concentrations of siNA ranging from 0.083 fM to 30 nM. All of the data is presented as % knockdown of Bach1 normalized against the expression of GAPDH mRNA expression level. Then the data was determined as a % knockdown relative to the non-targeting control siNA.

The subject of series [2] is Bach1 mRNA. Description: Bach1 mRNA knockdown and potency in human bronchial epithelial cells (NHBE). The note with it: 48 hours post transfection, mean of 3 donors; for EC50: Bach1 mRNA knockdown; for Maximum mRNA knockdown: Bach1 mRNA. On the procedure:
The siNAs with Duplex ID numbers corresponding to 29961-DC, 29964-DC, 29984-DC, 29988-DC, 29957-DC, 29947-DC, and 29956-DC were tested for maximum Bach1 mRNA knockdown and for potency in human bronchial epithelial cells as follows.
Human Bronchial Epithelial cells (NHBE cells) obtained from Lonza (Cat. No. CC-2540) were grown at 37deg in the presence of 5% CO2 and cultured in BEBM basal medium (Lonza, Cat. No. CC-3171) on Biocoat Collagen1 coated flasks (Becton Dickinson).
NHBE cells were plated in collagen 1 coated plates and cultured in appropriate culture media. The cells were cultured for 24 hours after plating at 37 degrees in the presence of 5% CO2. siNAs were diluted in OptiMEM 1 to 1 uM and the transfection agent to 25 ug/ml. For formulation of the siNAs equal volumes of the diluted siNA and delivery lipid were combined and incubated for 20 minutes at room temperature. Cells were meanwhile trypsinised and resuspended in antibiotic free BEBM media at 150,000 cells/ml. 20 ul of the formulated siNA and 80 ul of BEBM media was added per well of a 96 well plate (6 replicates/data point/siNA concentration) so as to give a nine point dose range of the siNAs (100 nM, 30 nM, 10 nM, 3 nM, 1 nM, 0.3 nM, 0.1 nM, 0.03 nM, 0.01 nM). The time of incubation with the transfection-siNA complexes were 48 hours with one change of media at 24 hours.
Total RNA was isolated from the cells in the 96-well plate format using the Automated SV96 Total RNA Isolation System (Promega) according to the manufacturer's instructions. The Biomek 2000 Laboratory Automation Workstation (Beckman Coulter) was used to apply the transfected cell lysates to a silica membrane. RNase-Free DNase I was then applied directly to the silica membrane to digest contaminating genomic DNA. The bound total RNA was further purified from contaminating salts, proteins and cellular impurities by simple washing steps. Finally, total RNA was eluted from the membrane by the addition of Nuclease-Free Water.
A series of probes and primers were used for the detection of mRNA transcripts of Bach1, OAS1, IL8 and GAPDH (as control/normalisation) in the human cell lines. The assays were performed on an ABI 7900HT instrument according to the manufacturer's instructions. Primer Probe sets used:
With Taqman data critical threshold values (Ct) were converted to copy numbers corresponding to the particular gene analysed in each well of the 384 well plate. Six identical wells were prepared in each plate for a given treatment. […] Determination of the percentage coefficient of variation (CV) (% C.V.=[standard deviation/average]*100) allowed the omitting of wells whose value was an outlier (so that % C.V.<25). Relative abundance (aka relative expression) of a gene was determined by dividing the mean copy number of that gene with its GAPDH counterpart in that particular sample.
EC50 values were calculated from the data using sigma plot. All calculations of the efficacy and potency of the siNAs were done relative to the non-targeting control siNA. Percentage knockdown was compared between the four lead siNA's. The data was analysed using an ANOVA test and then the p-values were corrected for multiple comparisons using the False Discovery Rate correction (FDR).

Series [3] deals with Bach1 mRNA. Description: Dose-response curve of Bach1 mRNA knock-down in human A549 cells. The note with it: for Maximum % KD in DRC: Table 6, Bach1 mRNA, mean ± SD; for IC50: Table 6, mean ± SD.

Usually IC50 stands for the point on the concentration scale where inhibition reaches its midpoint. The EC50 is the concentration needed to bring the measured effect to its halfway point. Lower therefore signals higher potency in that assay. Turning to “29947-DC (sense GGAAUCCUGCUUUCAGUUUTT; antisense AAACUGAAAGCAGGAUUCCUU; inverted abasic caps (B), 2'-modified nucleotides, further chemistry not given here)”, in the series with Bach1 mRNA [1], half-maximal inhibition (IC50) required 0.027 ± 0.005 nM and the “Maximum % KD in DRC” value turned out to be 86 ± 0.5%. Besides, in the series with Bach1 mRNA [2], a half-maximal effect (EC50) was put at 4.31 nM and the “Maximum mRNA knockdown” value was found to be 65%. For the same substance, in the series on Bach1 mRNA [3], the “Maximum % KD in DRC” value is given as 86 ± 0.5% and the 50% inhibitory concentration (IC50) was found to be 27 ± 5 pM.
With “29956-DC (sense GUCUGAGUGUCCGUGGUUATT; antisense UAACCACGGACACUCAGACUU; inverted abasic caps (B), 2'-modified nucleotides, further chemistry not given here)”, in the series with Bach1 mRNA [1], the concentration for half-maximal inhibition (IC50) is 0.028 ± 0.018 nM and the “Maximum % KD in DRC” value amounted to 80 ± 7.7%. Moreover, in the series with Bach1 mRNA [2], the EC50 was 2.16 nM and the “Maximum mRNA knockdown” value came out at 68%. Further, in the series with Bach1 mRNA [3], the “Maximum % KD in DRC” value is given as 80 ± 7.7% and the IC50 was found to be 28 ± 18 pM.
For the substance “29957-DC (sense GCAGUUACUUCCACUCAAGTT; antisense CUUGAGUGGAAGUAACUGCUU; inverted abasic end caps, TT overhangs, modified nucleotides, further chemistry not given here)”, in the series on Bach1 mRNA [1], the IC50 is 0.039 ± 0.013 nM and the “Maximum % KD in DRC” value is reported as 87 ± 0.9%. Moreover, in the series with Bach1 mRNA [2], the EC50 stood at 0.95 nM and the “Maximum mRNA knockdown” value came to 70%. In the series with Bach1 mRNA [3], the “Maximum % KD in DRC” value is 87 ± 0.9% and the half-inhibitory concentration (IC50) amounted to 39 ± 13 pM.
On to “29961-DC (sense CUACACUGCUAAACUGAUUTT; antisense AAUCAGUUUAGCAGUGUAGUU; inverted abasic end caps, TT overhangs, modified nucleotides, further chemistry not given here)”, for which, in the series with Bach1 mRNA [1], half-maximal inhibition (IC50) was put at 0.01 ± 0.004 nM and the “Maximum % KD in DRC” value was 89 ± 2.2%. Also, in the series on Bach1 mRNA [2], the EC50 was 7.87 nM and the “Maximum mRNA knockdown” value was 80%. For the same substance, in the series with Bach1 mRNA [3], the “Maximum % KD in DRC” value amounted to 89 ± 2.2% and half-maximal inhibition (IC50) required 10 ± 4 pM.
On to “29964-DC (sense GAUUUGCAGGUGAUGUUAATT; antisense UUAACAUCACCUGCAAAUCUU; inverted abasic end caps, TT overhangs, modified nucleotides, further chemistry not given here)”, for which, in the series with Bach1 mRNA [1], the midpoint of inhibition, the IC50, lay at 0.027 ± 0.015 nM and the “Maximum % KD in DRC” value turned out to be 87 ± 2.8%. Besides, in the series on Bach1 mRNA [2], the half-maximal effective concentration (EC50) stood at 9.52 nM and the “Maximum mRNA knockdown” value is recorded as 72%. In the series on Bach1 mRNA [3], the “Maximum % KD in DRC” value is reported as 87 ± 2.8% and the IC50 amounted to 27 ± 15 pM.
Regarding “29984-DC (sense GUUAAAGGAUUUGAACCUUTT; antisense AAGGUUCAAAUCCUUUAACUU; inverted abasic end caps, TT overhangs, modified nucleotides, further chemistry not given here)”, in the series with Bach1 mRNA [2], the EC50 turned out to be 23.2 nM and the “Maximum mRNA knockdown” value is given as 65%.
Take “29988-DC (sense AUUUGAACCUUUAAUUCAGTT; antisense CUGAAUUAAAGGUUCAAAUUU; inverted abasic end caps, TT overhangs, modified nucleotides, further chemistry not given here)”: in the series with Bach1 mRNA [1], the IC50 amounted to 0.063 ± 0.019 nM and the “Maximum % KD in DRC” value came out at 84 ± 0.9%. Moreover, in the series with Bach1 mRNA [2], it took 3.84 nM to reach a half-maximal effect (EC50) and the “Maximum mRNA knockdown” value is on record as 70%. Further, in the series with Bach1 mRNA [3], the “Maximum % KD in DRC” value was 84 ± 0.9% and the IC50 stood at 63 ± 19 pM.

These data come from patent US20120016010A1, “RNA Interference Mediated Inhibition of BTB and CNC Homology 1, Basic Leucine Zipper Transcription Factor 1 (BACH1) Gene Expression Using Short Interfering Nucleic Acid (siNA)” (Merck Sharp & Dohme Corp, priority 2009, published 2012).
